Assay results taken from patent US4973691A, “Etheric derivative of 4(3H)-quinazolinone and a process for preparation thereof” (Spojene Podniky Prozdravotnickou Vyrobu (SPOFA), priority 1988, dated 1990).
Counter-ions that a name gives are not always drawn.

Experiments:
analgesic activity = assay type: in vivo; settings: for ED50 (analgesic activity): p.o.; for ED50: po
in vivo = settings: po
[1] = extensive investigations in recent years; cited from earlier work
gastrotoxicity = settings: in vivo
[2] = LD50 (acute (short-time) toxicity)

Row | SMILES | ED50 (analgesic activity) | LD50 (in vivo; [2]) | further results
1 | O=c1c2ccccc2ncn1CCOc1ccc(-c2ccc(F)cc2F)cc1 [Preferred etheric derivative (hydrochloride salt)] | – | – | ED50 (analgesic activity) (analgesic activity): 26 mg/kg
2 | CC(=O)Oc1ccccc1C(=O)O [Acetylosalicylic acid] | 190 mg/kg | – | LD50 (in vivo): 1070 mg/kg
3 | O=c1c2ccccc2ncn1CCOc1ccc(-c2ccc(F)cc2F)cc1 | – | 2000 mg/kg | –
4 | Cc1c(N(C)C)c(=O)n(-c2ccccc2)n1C [Aminophenazone, 1-phenyl-2,3-dimethyl-4-dimethylamino-5-pyrazolone] | 104 mg/kg | – | cancerogenic properties [1]: potentially cancerogenic properties; LD50 (in vivo): 800 mg/kg
5 | CC(=O)Nc1ccc(O)cc1 [Paracetamol, 4-hydroxyacetanilide] | 285 mg/kg | 1090 mg/kg | –
6 | O=c1c2ccccc2ncn1CCOc1ccc(-c2ccc(F)cc2F)cc1 [Preferred etheric derivative (base), 3-[2-(2',4'-difluoro-4-biphenylyloxy)ethyl]-4(3H)-quinazolinone] | – | 1000 mg/kg | ED50 (analgesic activity) (analgesic activity): 71 mg/kg; signs of gastrotoxicity (gastrotoxicity): free of any signs of gastrotoxicity; signs of cancerogenity (cancerogenity): free of any signs of gastrotoxicity and cancerogenity
7 | CC(C)Cc1ccc(C(C)C(=O)O)cc1 (centres unmarked) [Ibuprofen, 2-(4-isobutylphenyl)propionic acid] | 179 mg/kg | – | –
